Experimental data taken from patent publication US20120321584A1, “PROCESSES FOR PREPARING AMINE SALTS OF KMUP-3 AND USE THEREOF” (KAOHSIUNG MEDICAL UNIVERSITY, priority 2011, published 2012).

Key:
Assay type in all cases: cell-based, guinea-pig
[1] = tested on: electrically-stimulated left atria; test: Electrically-stimulated beating left atrium, organ bath
Method: (§1) Organ bath experiments and tissue procurement. Guinea-pigs were killed by a blow on the head. Their hearts were quickly excised and trimmed of excess tissues. The atrium was carefully removed and placed at room temperature (20˜25° C.) in a Krebs solution of the following composition (mM): NaCl 113, KCl 4.8, CaCl2 2.2, KH2PO4 1.2, MgCl2 1.2, NaHCO3 25, dextrose 11.0; bubbled with a 95% O2+5% CO2 mixture, followed by separation of right and left atrium for subsequent experiments.
Quiescent left atria free of connective tissues were dissected and mounted in an organ bath under a resting tension of 0.5 g. Organs were bathed at 32.5° C. in aerated Krebs solution and electrically stimulated with 1 Hz at […] via two platinum electrodes placed at either side. The positive inotropic effect was measured by determining the cumulative concentration-response curves in the presence of KMUP-3 or KMUP-3 amine salt (0.1, 1.0, 10, 100 μM). To examine the possible involvement of NO and cAMP/cGMP in the action of KMUP-3 or KMUP-3 amine salt on electrically-stimulated beating atria, pre-incubated with a ROCK inhibitor Y27632 (1.0 μM), a β-adrenoceptor blocker propranolol (1.0 μM), eNOS inhibitors L-NAME (100 μM), 7-nitroindazole (100 μM) and 5-HT inhibitor ketanserin (1.0 μM) was performed for 15 min prior to the addition of KMUP-3 or KMUP-3 amine salt to measure the development of beating force and heart rate for 10 min.

[2] = tested on: electrically-stimulated left atria; test: as above; settings: 0.1~30 μM, electrical stimulation 1 Hz
[3] = tested on: isolated spontaneously beating right atrium; test: Spontaneously beating right atrium, organ bath; settings: 0.1-30 μM
Method: as §1
Spontaneously beating right atrium was dissected from the heart and mounted in a 10 ml organ bath with one end fixed and the other end connected to a force displacement transducer (Grass, Model FT03). The frequency of contraction was measured on a separate channel by a tachometer (Coulbourn, Model S77-26) connected to a high-speed videograph (Coulbourn, AT L19-69). These experiments were carried out at 32.5° C. in Krebs solution. The atria strip was pre-stretched to a baseline tension of 0.5 g and equilibrated for 90 min in aerated (95% O2+5% CO2) Krebs solution before the experimental protocols were initiated. The atria were then allowed a 30-60 min washout period to re-stabilize. KMUP-3 or KMUP-3 amine salt (0.1, 1.0, 10, 100 μM) were then cumulatively added to the organ bath. […]

[4] = tested on: ROCKII; test: ROCKII expression in electrically-stimulated left atria, Western blotting
Method: Protein extraction and Western blotting analysis. Briefly, after incubation with test agents in an organ bath, isolated beating atrium was frozen and pulverized to a fine powder at the temperature of liquid nitrogen. Atrium powders were then homogenized in protein extraction reagent (Pierce Biotechnology, Inc., Rockford, Ill.) by sonication. The samples were sonicated 10 sec three times and centrifuged at 13,000 rpm at 4° C. for 30 min. The protein concentrations of supernatants were determined by using bovine serum albumin as the standard. The cell extracts were then boiled in a ratio of 4:1 with sample buffer (Tris 100 mM, pH 6.8; glycerol 20%, Sodium dodecyl sulfate (SDS) 4% and bromophenol blue 0.2%). Electrophoresis was performed using 10% SDS-PAGE and transferred to nitrocellulose membranes (Millipore Corp., Billerica, Mass.). The membrane was blocked with Tris-buffered saline (TBS; 20 mM Tris and 137 mM NaCl, pH 7.6) containing 0.1% Tween 20 (TTBS) and 5% nonfat milk at room temperature for 1 h, washed with TTBS, and then incubated overnight at 4° C. in the appropriate primary antibody for PKARI, RhoA, ROCKII, p-CIP-17, CPI-17 and PKG1α1β. The membranes were washed in TTBS before being incubated with horseradish peroxidase-conjugated antibody against mouse, goat, or rabbit IgG for 1 hr. Membranes were then washed in TTBS and developed with the enhanced chemiluminescence for the detection of the specific antigen. The intensity of the bands was measured by densitometry. eNOS or phosphorylated eNOS were extracted from cell culture of neonatal myocytes, PA ring and aortic ring (2-3 mm) of rats and measured by Western blotting analysis.
PK, ROCKII and CIP-17 expression and pretreatment of beating left atrium. To examine whether KMUP-3 or KMUP-3 amine salt affects the protein expression in beating atrium, PKA, ROCKII, PKG and phosphorylated CIP-17 was determined by Western blotting, respectively. […]

Which Left atria contractility ([1]; KMUP-3 10 μM) does the source give for `Cn1c(=O)c2c(ncn2CCN2CCN(c3ccc([N+](=O)[O-])cc3)CC2)n(C)c1=O` [KMUP-3, 7-[2-[4-(4-nitrobenzene)piperazinyl]ethyl]-1,3-dimethylxanthine] here?
The Left atria contractility was “increased”.

What about the “Potency for increasing contractility compared with milrinone” value ([1]; electrical stimulation 1 Hz, P<0.05) of the same compound?
The value was “more potent than milrinone”.

And the Left atrium contractility [2]?
The Left atrium contractility was “concentration-dependently increased”.

And the “Chronotropic effect (beating frequency)” value [3]?
Its value is “decreased”.

And the “Inotropic effect (contraction force)” value [3]?
The value was “concentration-dependently increased”.

And the ROCKII expression ([4]; FIG. 13A, concentration not given)?
Its ROCKII expression is “significantly increased”.

And the ROCKII expression ([4]; KMUP-3 0.1-10 μM)?
Its ROCKII expression is “significantly increased”.
